Laboratory results published in ChEMBL document CHEMBL3400089, “Studies on antimicrobial effects of four ligands and their transition metal complexes with 8-mercaptoquinoline and pyridine terminal groups” (2015).
In brackets after ≈: the same amount, converted by molar mass. Where a name gives a salt, the structure may show the parent alone.

Key:
Assay type in all cases: functional
Pseudomonas aeruginosa = assay: Antimicrobial activity against Pseudomonas aeruginosa after 24 hrs by two fold serial microdilution method
Escherichia coli = assay: Antimicrobial activity against Escherichia coli ATCC 25922 after 24 hrs by two fold serial microdilution method; conditions: ATCC 25922, 24 h
Sporosarcina ureae = assay: Antimicrobial activity against Sarcina ureae after 24 hrs by two fold serial microdilution method
Staphylococcus aureus = assay: Antimicrobial activity against Staphylococcus aureus ATCC 27154 after 24 hrs by two fold serial microdilution method; conditions: ATCC 27154, 24 h
[1] = system: Fusarium oxysporum f. sp. cubense; assay: Antimicrobial activity against Fusarium oxysporum f. sp. cubense after 48 hrs by two fold serial microdilution method
Aspergillus niger = assay: Antimicrobial activity against Aspergillus niger after 48 hrs by two fold serial microdilution method
Saccharomyces cerevisiae = assay: Antimicrobial activity against Saccharomyces cerevisiae after 48 hrs by two fold serial microdilution method

`c1cc(CSc2cccc3cccnc23)nc(CSc2cccc3cccnc23)c1` gave an MIC (Pseudomonas aeruginosa) greater than 117 µM, an MIC (Escherichia coli) of 7.35 µM (≈ 3.13 µg/mL) and an MIC (Sporosarcina ureae) greater than 117 µM. It also gave an MIC (Staphylococcus aureus) greater than 117 µM.

NYSTATIN was tested, and the MIC [1] was 28.2 µM, the MIC (Aspergillus niger) was 14.1 µM and the MIC (Saccharomyces cerevisiae) was 14.1 µM.

`CC1(C)S[C@@H]2[C@H](NC(=O)[C@H](N)c3ccccc3)C(=O)N2[C@H]1C(=O)O` [AMPICILLIN] showed an MIC (Pseudomonas aeruginosa) of 17.4 µM (≈ 6.08 µg/mL), an MIC (Escherichia coli) of 34.7 µM (≈ 12.1 µg/mL) and an MIC (Sporosarcina ureae) of 17.4 µM (≈ 6.08 µg/mL). It also gave an MIC (Staphylococcus aureus) of 69.4 µM (≈ 24.2 µg/mL).

With `c1cnc2c(SCc3ccncc3)cccc2c1` the MIC (Pseudomonas aeruginosa) was greater than 198 µM, the MIC (Escherichia coli) was 24.8 µM (≈ 6.26 µg/mL) and the MIC (Sporosarcina ureae) was greater than 198 µM. For the same molecule, the MIC (Staphylococcus aureus) was greater than 198 µM.

`c1cncc(CSc2cccc3cccnc23)c1` showed an MIC (Pseudomonas aeruginosa) greater than 198 µM, an MIC [1] greater than 495 µM and an MIC (Escherichia coli) of 99.1 µM (≈ 25 µg/mL). It also gave an MIC (Aspergillus niger) greater than 495 µM, an MIC (Sporosarcina ureae) greater than 198 µM and an MIC (Saccharomyces cerevisiae) greater than 495 µM. The MIC (Staphylococcus aureus) was greater than 198 µM.

`c1ccc(CSc2cccc3cccnc23)nc1` showed an MIC (Pseudomonas aeruginosa) greater than 198 µM, an MIC (Escherichia coli) of 49.5 µM (≈ 12.5 µg/mL) and an MIC (Sporosarcina ureae) greater than 198 µM. It also gave an MIC (Staphylococcus aureus) greater than 198 µM.

Molecule `CN[C@@H]1[C@H](O[C@H]2[C@H](O[C@H]3[C@H](O)[C@@H](O)[C@H](N=C(N)N)[C@@H](O)[C@@H]3N=C(N)N)O[C@@H](C)[C@]2(O)C=O)O[C@@H](CO)[C@H](O)[C@H]1O` [STREPTOMYCIN SULFATE] has an MIC (Pseudomonas aeruginosa) of 1.07 µM, an MIC (Escherichia coli) of 2.14 µM and an MIC (Sporosarcina ureae) of 2.14 µM. It also gave an MIC (Staphylococcus aureus) of 1.07 µM.
